“Also recorded” adds a separate entry of the source.
Test system: IL-17 production in myelin-specific CD4 T cells
Assay: Inhibition of IL-17 production in myelin-specific CD4 T cells (splenocytes activated with MBP Ac1-11 plus TGF-β and IL-6; flow cytometry, ELISA)
Type: cell-based, mice
Details: 3 days; for suppression of IL-17 production in myelin-specific CD4 T cells (in words): in vitro; for suppression of IL-17 production: murine myelin-specific CD4 T cells
Protocol: In vitro culture of splenocytes from TCR transgenic mice. Splenocytes were prepared from naïve 5-10-wk-old Vα2.3/Vβ8.2 TCR transgenic mice and cultured in 24-well plates at […] with irradiated B10.PL splenocytes (6×10^8 cells/well). Cells were activated with of MBP Ac1-11 (10 μg/ml) and different combination of cytokines or neutralizing antibodies for cytokines to differentiate effector T helper cells. Cytokines and antibody concentrations were as follows: 0.5 ng/ml IL-12, 25 ng/ml IL-6, 1 ng/ml TGFβ1, 2 μg/ml anti-IFNγ, 1 μg/ml anti-IL-12, 2 μg/ml anti-IL-4, and 0.35 μg/ml anti-TGFβ (Yang, Weiner et al. 2009).
ELISA Assay. ELISA was performed to detect the expression of IL-17 and IFNγ in supernatant. Purified anti-mouse IL-17 primary antibody (BD bioscience) was diluted in 0.1 M NaHCO3 (pH 8.2) at 2 μg/ml while purified anti-mouse IFNγ primary antibody was diluted in 0.1M NaHCO3 (pH 9.5) at 2 μg/ml. Immunolon II plates (Dynatech Laboratories) were coated with 50 μl of primary antibodies per well and incubated overnight at 4° C. The plates were washed twice with PBS/0.05% Tween 20. The plates were blocked with 200 μl of 1% BSA in PBS per well for 2 h. The plates were washed twice with PBS/0.05% Tween 20, and 100 μl of supernatants were added in duplicate. The plates were incubated over-night at 4° C. and washed four times with PBS/0.05% Tween 20. Biotinylated rat anti-mouse secondary antibody (BD bioscience) were diluted in PBS/1% BSA, 100 μl of 1 μg/ml biotinylated antibody was added to each well, and plates were incubated at room temperature for 1 h. The plates were washed six times with PBS/0.05% Tween 20, and 100 μl avidin-peroxidase was added at 2.5 μg/ml and incubated for 30 min. The plates were washed eight times with PBS/0.05% Tween 20, and 100 μl ABTS substrate containing 0.03% H2O2 (for IL-17) or TMB substrate (for IFNγ) was added to each well. The plate was monitored for 10-20 min for color development and read at A 405. A standard curve was generated from cytokine standard, and the cytokine concentration in the samples was calculated.
Intracellular staining and flow cytometric analysis. Flow cytometric analysis was performed to evaluate the expression of surface markers and T-bet in CD4 T cells, as previously described (Yang, Weiner et al. 2009). Briefly, splenocytes were activated with antigen or αCD3/CD28 for 48 to 72 hours. Cells were then collected, washed, and resuspended in staining buffer (1% BSA in PBS). The cells were incubated with mAbs to the cell-surface markers for 30 min at 4° C. After washing twice with staining buffer, cells were fixed and permeabilized using Cytofix/Cytoperm solution for 20 min at 4° C. […] 80,000-100,000 live cell events were acquired on a FACSCanto (BD) and analyzed using FlowJo software (Tree Star, Inc.). […]

NS(=O)(=O)c1cccc2c1C(=O)c1cccc(O)c1C2=O [LLL12]
suppression of IL-17 production in myelin-specific CD4 T cells (in words): inhibition of IL-17

CN(C)C(=O)Oc1cccc2c1C(=O)c1cccc(S(N)(=O)=O)c1C2=O [LLL12b]
suppression of IL-17 production (0.25 μM): 44%
suppression of IL-17 production (0.50 μM): 72%
suppression of IL-17 production in myelin-specific CD4 T cells (in words): significantly suppress IL-17 production; also recorded: inhibits myelin-specific IL-17 production in a dose-dependent manner

Source: patent publication US12594265B2, “Methods and compositions for inhibition of STAT3” (Ohio State Innovation Foundation, priority 2017, dated 2026)
